Test results: patent publication US9693556B2, “Herbicidal pyridazinone derivatives” (SYNGENTA LIMITED, priority 2011, dated 2017)

Tests used:
Assay type in all cases: in vivo
[1] = system: Alopecurus myosuroides (ALOMY); assay: Pre-emergence herbicidal glasshouse test on Alopecurus myosuroides; conditions: pre-emergence, 1000 g/h, evaluated after 13 days
Method in brief: (§1)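 Herbicidal damage was rated 13 days after treatment on a five-point scale, where 5 denotes 80-100% and 1 denotes 0-19% damage. Spraying at 1000 g/h followed sowing by one day (pre-emergence) or eight days (post-emergence).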

[2] = system: Setaria faberi (SETFA); assay: Pre-emergence herbicidal glasshouse test on Setaria faberi; conditions: pre-emergence, 1000 g/h, evaluated after 13 days
Method in brief: as §1

[3] = system: Echinochloa crus-galli (ECHCG); assay: Pre-emergence herbicidal glasshouse test on Echinochloa crus-galli; conditions: pre-emergence, 1000 g/h, evaluated after 13 days
Method in brief: as §1

[4] = system: Solanum nigrum (SOLNI); assay: Pre-emergence herbicidal glasshouse test on Solanum nigrum; conditions: pre-emergence, 1000 g/h, evaluated after 13 days
Method in brief: as §1

[5] = system: Amaranthus retoflexus (AMARE); assay: Pre-emergence herbicidal glasshouse test on Amaranthus retoflexus; conditions: pre-emergence, 1000 g/h, evaluated after 13 days
Method in brief: as §1

[6] = system: Ipomoea hederacea (IPOHE); assay: Pre-emergence herbicidal glasshouse test on Ipomoea hederacea; conditions: pre-emergence, 1000 g/h, evaluated after 13 days
Method in brief: as §1

[7] = system: Alopecurus myosuroides (ALOMY); assay: Post-emergence herbicidal glasshouse test on Alopecurus myosuroides; conditions: post-emergence, 1000 g/h, evaluated after 13 days
Method in brief: as §1

[8] = system: Setaria faberi (SETFA); assay: Post-emergence herbicidal glasshouse test on Setaria faberi; conditions: post-emergence, 1000 g/h, evaluated after 13 days
Method in brief: as §1

[9] = system: Echinochloa crus-galli (ECHCG); assay: Post-emergence herbicidal glasshouse test on Echinochloa crus-galli; conditions: post-emergence, 1000 g/h, evaluated after 13 days
Method in brief: as §1

[10] = system: Solanum nigrum (SOLNI); assay: Post-emergence herbicidal glasshouse test on Solanum nigrum; conditions: post-emergence, 1000 g/h, evaluated after 13 days
Method in brief: as §1

[11] = system: Amaranthus retoflexus (AMARE); assay: Post-emergence herbicidal glasshouse test on Amaranthus retoflexus; conditions: post-emergence, 1000 g/h, evaluated after 13 days
Method in brief: as §1

[12] = system: Ipomoea hederacea (IPOHE); assay: Post-emergence herbicidal glasshouse test on Ipomoea hederacea; conditions: post-emergence, 1000 g/h, evaluated after 13 days
Method in brief: as §1

SMILES	PRE Application ALOMY herbicidal damage (five point scale) [1]	PRE Application SETFA herbicidal damage (five point scale) [2]	PRE Application ECHCG herbicidal damage (five point scale) [3]	PRE Application SOLNI herbicidal damage (five point scale) [4]	PRE Application AMARE herbicidal damage (five point scale) [5]	PRE Application IPOHE herbicidal damage (five point scale) [6]	POST Application ALOMY herbicidal damage (five point scale) [7]	POST Application SETFA herbicidal damage (five point scale) [8]	POST Application ECHCG herbicidal damage (five point scale) [9]	POST Application SOLNI herbicidal damage (five point scale) [10]	POST Application AMARE herbicidal damage (five point scale) [11]	POST Application IPOHE herbicidal damage (five point scale) [12]	other results
Cc1nc2nc(C(F)(F)F)c(-c3cnn(C)c(=O)c3O)cc2cc1F [Compound 1.151]	–	–	–	–	–	–	–	–	–	–	–	–	herbicidal damage, PRE Application ALOMY ([1]; five point scale): 2 (2=20-39% damage); herbicidal damage, PRE Application SETFA ([2]; five point scale): 2 (2=20-39% damage); herbicidal damage, PRE Application ECHCG ([3]; five point scale): 5 (5=80-100% damage); herbicidal damage, PRE Application SOLNI ([4]; five point scale): 4 (4=60-79% damage); herbicidal damage, PRE Application AMARE ([5]; five point scale): 5 (5=80-100% damage); herbicidal damage, PRE Application IPOHE ([6]; five point scale): 5 (5=80-100% damage); herbicidal damage, POST Application ALOMY ([7]; five point scale): 5 (5=80-100% damage); herbicidal damage, POST Application SETFA ([8]; five point scale): 5 (5=80-100% damage); herbicidal damage, POST Application ECHCG ([9]; five point scale): 5 (5=80-100% damage); herbicidal damage, POST Application SOLNI ([10]; five point scale): 5 (5=80-100% damage); herbicidal damage, POST Application AMARE ([11]; five point scale): 5 (5=80-100% damage); herbicidal damage, POST Application IPOHE ([12]; five point scale): 5 (5=80-100% damage)
COCCOc1c(S(C)(=O)=O)ccc(-c2cnn(C)c(=O)c2O)c1Cl [Compound 1.034]	2 (2=20-39% damage)	5 (5=80-100% damage)	5 (5=80-100% damage)	5 (5=80-100% damage)	5 (5=80-100% damage)	3 (3=40-59% damage)	4 (4=60-79% damage)	5 (5=80-100% damage)	5 (5=80-100% damage)	5 (5=80-100% damage)	5 (5=80-100% damage)	5 (5=80-100% damage)	–
Cn1ncc(-c2ccc(S(=O)(=O)N3CCOCC3)cc2S(C)(=O)=O)c(O)c1=O [Compound 2.037]	3 (3=40-59% damage)	2 (2=20-39% damage)	5 (5=80-100% damage)	5 (5=80-100% damage)	5 (5=80-100% damage)	4 (4=60-79% damage)	3 (3=40-59% damage)	4 (4=60-79% damage)	5 (5=80-100% damage)	5 (5=80-100% damage)	5 (5=80-100% damage)	5 (5=80-100% damage)	–
C=Cc1nn(C)c(=O)c(O)c1-c1ccc(S(C)(=O)=O)c(C2=NOCC2)c1C [Compound 2.020]	4 (4=60-79% damage)	1 (1=0-19% damage)	5 (5=80-100% damage)	5 (5=80-100% damage)	5 (5=80-100% damage)	1 (1=0-19% damage)	4 (4=60-79% damage)	4 (4=60-79% damage)	4 (4=60-79% damage)	5 (5=80-100% damage)	5 (5=80-100% damage)	5 (5=80-100% damage)	–
CC(C)n1ncc(-c2ccc(S(C)(=O)=O)c(C3=NOCC3)c2Cl)c(O)c1=O [Compound 1.014]	5 (5=80-100% damage)	5 (5=80-100% damage)	5 (5=80-100% damage)	5 (5=80-100% damage)	5 (5=80-100% damage)	2 (2=20-39% damage)	5 (5=80-100% damage)	5 (5=80-100% damage)	5 (5=80-100% damage)	5 (5=80-100% damage)	5 (5=80-100% damage)	5 (5=80-100% damage)	–
Cn1ncc(-c2ccc(-c3ccccc3)cc2S(C)(=O)=O)c(O)c1=O [Compound 2.033]	4 (4=60-79% damage)	2 (2=20-39% damage)	4 (4=60-79% damage)	5 (5=80-100% damage)	5 (5=80-100% damage)	1 (1=0-19% damage)	5 (5=80-100% damage)	3 (3=40-59% damage)	5 (5=80-100% damage)	5 (5=80-100% damage)	5 (5=80-100% damage)	5 (5=80-100% damage)	–
Cc1cc(Cl)ccc1-c1c(C(F)(F)F)ccn(-c2cnn(C)c(=O)c2O)c1=O [Compound 7.038]	5 (5=80-100% damage)	3 (3=40-59% damage)	5 (5=80-100% damage)	5 (5=80-100% damage)	5 (5=80-100% damage)	4 (4=60-79% damage)	5 (5=80-100% damage)	3 (3=40-59% damage)	5 (5=80-100% damage)	5 (5=80-100% damage)	5 (5=80-100% damage)	5 (5=80-100% damage)	–
Cn1ncc(-c2ccc(C(F)(F)F)nc2Cl)c(O)c1=O [Compound 4.014]	1 (1=0-19% damage)	1 (1=0-19% damage)	5 (5=80-100% damage)	4 (4=60-79% damage)	5 (5=80-100% damage)	2 (2=20-39% damage)	1 (1=0-19% damage)	2 (2=20-39% damage)	3 (3=40-59% damage)	5 (5=80-100% damage)	5 (5=80-100% damage)	5 (5=80-100% damage)	–
